From patent US20100029654A1, “CARDIOVASCULAR COMPOSITIONS AND USE OF THE SAME FOR THE TREATMENT OF ALZHEIMER'S DISEASE” (MOUNT SINAI SCHOOL OF MEDICINE, priority 2006, published 2010)
Where “and” joins values, the source holds several entries; their conditions need not be identical. Equal values may be shown once. Where a name gives a salt, the structure may show the parent alone. Read-outs that look alike come from different tables or passages of the source.

Key:
[1] = system: Aβ1-42; assay: Aβ1-42 content in conditioned medium of primary cortico-hippocampal neuron cultures from Tg2576 mice (ELISA; primary and secondary dose-response screening); assay type: cell-based, mouse; details: for Ab1-42 (% of ctl) / activity at 100 µM: drug 100 μM; for activity at 100 µM: Mus musculus, Neuron, 24 h, read-out: Ab1-42 (% of ctl); for reducing Aβ1-42: <85% of ctl
Outline: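 Primary cortico-hippocampal neurons from embryonic Tg2576 mouse brain were seeded on poly-D-lysine-coated 96-well plates at 1.0×10^5 cells per well in serum-free Neurobasal medium with 2% B27, 0.5 mM L-glutamine and 1% penicillin-streptomycin. For primary screening, duplicate wells received 100 μM drug (1% DMSO final). Vehicle-treated cultures served as controls, and Aβ1-42 in conditioned medium was measured by commercial ELISA.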

[2] = system: Aβ1-42; assay: as above; assay type: cell-based, mouse; details: Mus musculus; for activity at 100 µM: primary screening, drug 100 μM, Tg2576 neuron cultures, table sorted by Aβ1-42, read-out: Ab1-42 (% of ctl); for EC50: Neuron
[3] = system: primary cortico-hippocampal neuron cultures; assay: lactate dehydrogenase (LDH) activity assay in parallel neuron cultures; details: for LDH at E-5M % of change: drug at E-5M
Experimental: For in vitro treatments drugs available from “The Spectrum Collection” in stocks of 10 mM in DMSO were applied directly to cultures to the desired concentrations (final 1% DMSO); control primary neuron cultures from Tg2576 embryos were treated with vehicle resulting in a final 1% DMSO.
Cell viability was assessed using a commercial available LDH assay kit according to the manufacture's instruction (Promega).

[4] = system: Aβ1-40; assay: Aβ1-40 content in conditioned medium of primary cortico-hippocampal neuron cultures from Tg2576 mice (ELISA; primary and secondary dose-response screening); assay type: cell-based, mouse; details: for activity at 100 µM / EC50: Mus musculus; for activity at 100 µM: 24 h, read-out: Ab1-40 (% of ctl); for activity at 100 µM / Ab1-40 (% of ctl): drug 100 μM; for reduced Aβ1-40: <85% of ctl
Outline: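 Primary cortico-hippocampal neurons from embryonic Tg2576 mice were plated at 1.0×10^5 cells per well on poly-D-lysine-coated 96-well plates in Neurobasal with 2% B27, 0.5 mM L-glutamine and 1% penicillin-streptomycin. Cultures received drug in 1% DMSO, and Aβ1-40 in the conditioned medium was measured by BioSource ELISA 24 hours after treatment, relative to vehicle controls.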

[5] = system: primary cortico-hippocampal neuron cultures; assay: MTT in primary screening
[6] = Primary Screening, table sorted by Aβ1-40
[7] = primary screening, table sorted by Aβ1-42
[8] = primary screening, Tg2576 neuron cultures, table sorted by Aβ1-42
[9] = 24 h, secondary dose-response screening 0.01-100 μM, 24 hours, read-out: EC50 (molar) Aβ1-42
[10] = Neuron, Primary Screening, table sorted by Aβ1-40
[11] = Neuron, primary screening, Tg2576 neuron cultures, table sorted by Aβ1-42
[12] = Neuron, secondary dose-response screening 0.01-100 μM, 24 hours, read-out: EC50 (molar) Aβ1-40
[13] = 24 h, conditioned medium of primary cortico-hippocampal neuron cultures from Tg2576 embryos, 24 hours after treatment, relative to vehicle (1% DMSO) control, read-out: EC50 (molar) Aβ1-42
[14] = Primary Screening, table sorted by Aβ1-40, Hydrochloride
[15] = primary screening, table sorted by Aβ1-42, Hydrochloride

| LDH (% of ctl) [3, 6] | LDH (% of ctl) [3, 7] | MTT (% of ctl) [5, 6] | MTT (% of ctl) [5, 7] | EC50 [2, 9] [M] | LDH at E-5M % of change [3] [%] | EC50 [4, 12] [M] | SMILES | Ab1-42 (% of ctl) [1, 6] | activity at 100 µM ([2]; 24 h) [%] | activity at 100 µM [4, 8] [%] | Ab1-40 (% of ctl) [4, 6] | activity at 100 µM [1, 6] [%] | activity at 100 µM [1, 8] [%] | reducing Aβ1-42 ([1]; primary screening) | activity at 100 µM [4, 10] [%] | activity at 100 µM [4, 11] [%] | reduced Aβ1-40 ([4]; primary screening) | other results |
| --- | --- | --- | --- | --- | --- | --- | --- | --- | --- | --- | --- | --- | --- | --- | --- | --- | --- | --- |
| 1881.4 % of ctl | 1881.4 % of ctl | 7.7 % of ctl | 7.7 % of ctl | 4.2e-05 | −3.0 | 1.25e-05 | CC(NCCC(c1ccccc1)c1ccccc1)c1ccccc1 (stereo not drawn) [Fendiline Hydrochloride] | – | – | – | – | 26.2 | 26.2 | useful in reducing Aβ1-42 | 7.9 | 7.9 | reduced Aβ1-40 | – |
| 164.0 % of ctl | 164.0 % of ctl | 93.0 % of ctl | 93.0 % of ctl | 7.19e-07 | −5.0 | 4.06e-09 | CC(CCc1ccccc1)NCC(O)c1ccc(O)c(C(N)=O)c1 (stereo not drawn) [Labetalol Hydrochloride] | – | – | – | – | 106 | 106 | – | 84.9 | 84.9 | reduced Aβ1-40 | EC50 [2, 13]: 7.19e-07 M |
| 104.7 % of ctl | 104.7 % of ctl | 80.8 % of ctl | 80.8 % of ctl | 0.039 | 6.4 | 8.67e-05 | N=C(N)NC(=O)c1nc(Cl)c(N)nc1N [Amiloride Hydrochloride] | – | – | – | – | 47.1 | 47.1 | useful in reducing Aβ1-42 | 77.5 | 77.5 | reduced Aβ1-40 | EC50 ([2]; Table IV, dose-response 0.01-100 μM, read-out: EC50 (M): Ab-lowering activity): 3.01e-05 M; LDH (at 5F-5 M) ([3]; Table IV): no change; EC50 ([4]; Neuron, Table IV, dose-response 0.01-100 μM, read-out: EC50 (M): Ab-lowering activity Abeta1-40): 8.67e-05 M |
| 94.3 % of ctl | 94.3 % of ctl | 100.8 % of ctl | 100.8 % of ctl | 1.6e-06 | 5.0 | 0.000822 | CCOC(=O)C1=C(C)NC(C)=C(C(=O)OC)C1c1cccc([N+](=O)[O-])c1 (stereo not drawn) [Nitrendipine] | – | – | – | – | 64 | 64 | – | 33 | 33 | – | EC50 [2, 13]: 1.6e-06 M |
| 90.4 % of ctl | 90.4 % of ctl | 80.3 % of ctl | 80.3 % of ctl | – | – | – | NCCCCCC(=O)O [Aminocaproic Acid] | 184.3 % of ctl | 184 | 124 | 124.4 % of ctl | – | – | – | – | – | – | – |
| 260.2 % of ctl | 260.2 % of ctl | 99.9 % of ctl | 99.9 % of ctl | 6.76e-05 | 5.0 | 0.000571 | COc1cc2nc(N3CCN(C(=O)c4ccco4)CC3)nc(N)c2cc1OC [Prazosin Hydrochloride] | – | – | – | – | 23.2 | 23.2 | useful in reducing Aβ1-42 | 7.6 | 7.6 | reduced Aβ1-40 | EC50 [2, 13]: 6.76e-05 M |
| 101.5 % of ctl | 101.5 % of ctl | 109.9 % of ctl | 109.9 % of ctl | 2.25e-05 | 10.0 | 2.1e-05 | C=C(CC)C(=O)c1ccc(OCC(=O)O)c(Cl)c1Cl [Ethacrynic Acid] | – | – | – | – | 1.8 | 1.8 | useful in reducing Aβ1-42 | 4.4 | 4.4 | reduced Aβ1-40 | – |
| – | – | – | – | 8.07e-06 | 5.0 | – | CC(COc1ccccc1)NC(C)C(O)c1ccc(O)cc1 (stereo not drawn) [Isoxsuprine Hydrochloride] | – | – | – | – | 83.7 | 83.7 | useful in reducing Aβ1-42 | 78.3 | 78.3 | reduced Aβ1-40 | LDH (% of ctl) [3, 14]: 106.2 % of ctl and 107.7 % of ctl; LDH (% of ctl) [3, 15]: 106.2 % of ctl and 107.7 % of ctl; EC50 (molar) Aβ1-40 ([4]; secondary dose-response screening 0.01-100 μM, 24 hours): no fit; MTT (% of ctl) [5, 14]: 99.8 % of ctl and 93.1 % of ctl; MTT (% of ctl) [5, 15]: 99.8 % of ctl and 93.1 % of ctl |

| SMILES | LDH (% of ctl) [3, 6] | LDH (% of ctl) [3, 7] | MTT (% of ctl) [5, 6] | MTT (% of ctl) [5, 7] | EC50 [2, 9] [M] | LDH at E-5M % of change [3] [%] | EC50 [4, 12] [M] | Ab1-42 (% of ctl) [1, 6] | activity at 100 µM ([2]; 24 h) [%] | activity at 100 µM [4, 8] [%] | Ab1-40 (% of ctl) [4, 6] | activity at 100 µM [1, 6] [%] | activity at 100 µM [1, 8] [%] | reducing Aβ1-42 ([1]; primary screening) | activity at 100 µM [4, 10] [%] | activity at 100 µM [4, 11] [%] | reduced Aβ1-40 ([4]; primary screening) | other results |
| --- | --- | --- | --- | --- | --- | --- | --- | --- | --- | --- | --- | --- | --- | --- | --- | --- | --- | --- |
| CO[C@H]1[C@H](O)[C@H](O[C@H]2CC[C@@]3(C=O)[C@H](CC[C@@H]4[C@@H]3CC[C@]3(C)[C@@H](C5=CC(=O)OC5)CC[C@]43O)C2)O[C@@H](C)[C@@H]1O [Peruvoside] | 105.5 % of ctl | 105.5 % of ctl | 98.8 % of ctl | 98.8 % of ctl | – | – | – | 90.9 % of ctl | 90.9 | 115 | 115.3 % of ctl | – | – | – | – | – | – | – |
| CCN1C[C@]2(C)CC[C@H](OC)[C@@]34C1[C@]1(OCO[C@@]15C[C@H](OC)[C@H]1C[C@]3(O)[C@@H]5[C@H]1OC)[C@@H](OC(C)=O)[C@H]24 [Deltaline] | 118.9 % of ctl | 118.9 % of ctl | 99.4 % of ctl | 99.4 % of ctl | – | – | – | 143.0 % of ctl | 143 | 121 | 121.0 % of ctl | – | – | – | – | – | – | – |
| CC(COc1ccccc1)N(CCCl)Cc1ccccc1 (stereo not drawn) [Phenoxybenzamine Hydrochloride] | 81.3 % of ctl | 81.3 % of ctl | 72.8 % of ctl | 72.8 % of ctl | – | – | – | 90.7 % of ctl | 90.7 | 87.5 | 87.5 % of ctl | – | – | – | – | – | – | – |
| C[N+](C)(C)CCCCCC[N+](C)(C)C [Hexamethonium Bromide] | 99.7 % of ctl | 99.7 % of ctl | 92.1 % of ctl | 92.1 % of ctl | – | – | – | 72.6 % of ctl | 72.6 | 84.8 | 84.8 % of ctl | – | – | useful in reducing Aβ1-42 | – | – | reduced Aβ1-40 | – |
| CO[C@H]1[C@H](O)[C@H](O[C@H]2CC[C@@]3(C)[C@H](CC[C@@H]4[C@@H]3CC[C@]3(C)[C@@H](C5=CC(=O)OC5)CC[C@]43O)C2)O[C@@H](C)[C@@H]1O [Neriifolin] | 110.8 % of ctl | 110.8 % of ctl | 101.2 % of ctl | 101.2 % of ctl | – | – | – | 90.3 % of ctl | 90.3 | 79.7 | 79.7 % of ctl | – | – | – | – | – | reduced Aβ1-40 | – |
| COc1cc2c3cc1Oc1c(OC)c(OC)cc4c1[C@@H](Cc1cccc(c1)Oc1ccc(c(O)c1)C[C@@H]3N(C)CC2)N(C)CC4 [Berbamine Hydrochloride] | 129.1 % of ctl | 129.1 % of ctl | 97.6 % of ctl | 97.6 % of ctl | – | – | – | 150.6 % of ctl | 151 | 119 | 119.1 % of ctl | – | – | – | – | – | – | – |
